# Results published in PubChem BioAssay AID732 (Emory University Molecular Libraries Screening Center, 2007).
# Several values for one entry are separate records, joined by “and”; a condition that tells them apart may be missing. Equal entries are not always repeated. Activity calls are given as the source filed them. The rule behind the calls is not given here.
# System: in vivo angiogenesis, blood vessel count
# Test: reduction of blood vessel formation in vivo – HTS, in vivo study (AID 732);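 note: zebrafish embryos dosed at one day post fertilization; 0% = reference inhibitor and 100% = plate mean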
# Details: stronger effect = lower value;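 tested at 30 µM in the well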
row,SMILES,vessel count % control
1,C[C@]12C=CC(=O)C=C1CC[C@@H]1C2=CC[C@]2(C)[C@@H](C(=O)CN3CCN(c4cc(N5CCCC5)nc(N5CCCC5)n4)CC3)CC[C@@H]12,101% (inactive)
2,CNCCc1c[nH]c2ccc(O)cc12,101% (inactive)
3,CN1C2CCC1CC(OC(=O)c1c[nH]c3ccccc13)C2 (stereo not drawn),91.1% (inactive)
4,CC(C)CN(C)c1nc(N)c(C(=O)N=C(N)N)nc1Cl,101% (inactive)
5,NC(Cc1ccc(N(CCCl)CCCl)cc1)C(=O)O (stereo not drawn),123% (inactive)
6,CC(=O)NCCc1c[nH]c2ccccc12,103% (inactive)
7,Brc1ccc([C@H]2CN3CCSC3=N2)cc1,94.7% (inactive)
8,O=C(O)c1cccnc1C(=O)O,88.1% (inactive)
9,Cc1ccc(S(=O)(=O)N[C@@H](CCCCN)C(=O)CCl)cc1,133% (inactive)
10,NC(Cn1oc(=O)[nH]c1=O)C(=O)O (stereo not drawn),129% (inactive)
11,CCC1(C)CC(=O)NC1=O (stereo not drawn),95.8% (inactive)
12,Cc1ccc2[nH]c(O)c(-c3[nH]c4ccc(Br)cc4c3N=O)c2c1,33.9%
13,Cc1cc(N)c2ccccc2[n+]1CCCCCCCCCC[n+]1c(C)cc(N)c2ccccc21,100% (inactive)
14,Nc1ncnc2c1ncn2[C@@H]1O[C@H](COP(=O)(O)OP(=O)(O)OP(=O)(O)OP(=O)(O)OC[C@@H]2O[C@H](n3cnc4c(N)ncnc43)C(O)[C@@H]2O)[C@H](O)C1O (stereo partly drawn),89.7% (inactive)
15,Cn1cc(C(=O)OCC2CCN(CCNS(C)(=O)=O)CC2)c2ccccc21,106% (inactive)
16,O=C(O)CCc1nc(-c2ccccc2)c(-c2ccccc2)o1,73.7% (inactive)
17,C[C@]12C=CC(=O)C=C1CC[C@H]1[C@@H]3C[C@@H](O)[C@](O)(C(=O)CO)[C@@]3(C)C[C@H](O)[C@@]12F,129% (inactive)
18,N#C/C(=C\c1ccc(O)c(O)c1)C(=O)Nc1ccccc1,104% (inactive)
19,COc1ccc2c(c1O)-c1cccc3c1[C@@H](C2)N(C)CC3,90.5% (inactive)
20,CC(C)C1C2CCC(C2)C1N (stereo not drawn),95.1% (inactive)
21,CCOC(=O)c1cnc2c(cnn2CC)c1NN=C(C)C,108% (inactive)
22,C[C@H](Cc1ccc(O)c(O)c1)[C@@H](C)Cc1ccc(O)c(O)c1,124% (inactive)
23,CCCCOC(=O)NS(=O)(=O)c1sc(CC(C)C)cc1-c1ccc(Cn2c(CC)nc3c(C)cc(C)nc32)cc1,89% (inactive)
24,CC(COc1ccccc1)N(CCCl)Cc1ccccc1 (stereo not drawn),139% (inactive)
25,CC1=C(CC(=O)O)c2cc(F)ccc2/C1=C\c1ccc(S(C)=O)cc1 (stereo not drawn),89.8% (inactive)

row,SMILES,vessel count % control
1,CC(C)(C)c1onc(OCP(=O)(O)O)c1CC(N)C(=O)O (stereo not drawn),88.9% (inactive)
2,NNCc1cccc(O)c1,85.8% (inactive)
3,O=C(/C=C/c1ccc(O)cc1)c1ccc(O)cc1O,98.4% (inactive)
4,OC(CCN1CCCCC1)(c1ccccc1)C1CCCCC1 (stereo not drawn),98.5% (inactive)
5,CCN(CC)C(=S)SSC(=S)N(CC)CC,0% (inactive)
6,COc1cc(C(=O)OCCCN2CCCN(CCCOC(=O)c3cc(OC)c(OC)c(OC)c3)CC2)cc(OC)c1OC,116% (inactive)
7,O=C1c2ccccc2-c2n[nH]c3cccc1c23,107% (inactive)
8,O=C1C(c2c(O)[nH]c3ccccc23)=Nc2ccc(Br)cc21,108% (inactive)
9,CNCCC(Oc1ccc(C(F)(F)F)cc1)c1ccccc1 (stereo not drawn),74.2% (inactive)
10,OC[C@H]1O[C@@H](n2cnc3c(NC4CCCCC4)ncnc32)[C@H](O)[C@@H]1O,104% (inactive)
11,C#CC(N)CCC(=O)O (stereo not drawn),80% (inactive)
12,CCN(CC)CCCC(C)Nc1ccnc2cc(Cl)ccc12 (stereo not drawn),108% (inactive)
13,CCCn1c(=O)c2[nH]c(-c3ccc(S(=O)(=O)O)cc3)nc2n(CCC)c1=O,70.2% (inactive)
14,Cc1cc(NC(=O)Nc2ccc3c(ccn3C)c2)sn1,112% (inactive)
15,CC1CC2C3CCC4=CC(=O)C=C[C@]4(C)[C@@]3(F)[C@@H](O)C[C@]2(C)[C@@]1(O)C(=O)CO (stereo partly drawn),129% (inactive)
16,NO,93.7% (inactive)
17,COc1ccccc1N1CCNCC1,96.7% (inactive)
18,NC(N)=NCCSSCCN=C(N)N,93.7% (inactive)
19,O=C(Cc1ccc(Cl)c(Cl)c1)OCCN1CCCC1,81.9% (inactive)
20,C[C@H](Cc1ccccc1)Nc1ncnc2c1ncn2[C@@H]1O[C@H](CO)[C@H](O)C1O (stereo partly drawn),99.9% (inactive)
21,CC(C)NC[C@@H](O)COc1ccc(CC(N)=O)cc1,94.2% (inactive)
22,Cc1nc2ccccn2c(=O)c1CCN1CCC(C(=O)c2ccc(F)cc2)CC1,94.9% (inactive)
23,O=C1N=C(O)CN1/N=C/c1ccc(-c2ccc([N+](=O)[O-])cc2)o1,90.4% (inactive)
24,CN(C)CCCN1c2ccccc2Sc2ccc(C(F)(F)F)cc21,105% (inactive)
25,CC(C)Cc1ccc([C@H](C)C(=O)O)cc1,66.8% (inactive)

row,SMILES,vessel count % control
1,CCCNCC(O)COc1ccccc1C(=O)CCc1ccccc1 (stereo not drawn),102% (inactive)
2,CC(C)(Oc1ccc(C2CC2(Cl)Cl)cc1)C(=O)O (stereo not drawn),96.9% (inactive)
3,CC(N)Cc1c[nH]c2ccc(O)cc12 (stereo not drawn),99.1% (inactive)
4,CCCN1CC[C@@H]2c3cc(O)ccc3CC[C@@H]21,88.5% (inactive) and 103% (inactive)
5,CC(C)Oc1cccnc1N(C)C1CCN(Cc2ccccc2)CC1,98.1% (inactive)
6,FC(F)(F)c1cc(CO[C@H]2CCCN[C@H]2c2ccccc2)cc(C(F)(F)F)c1,91.5% (inactive)
7,CN1CCN(CC(=O)N2c3ccccc3C(=O)Nc3cccnc32)CC1,95.1% (inactive)
8,CSC(N)=NCCC[C@H](N)C(=O)O,107% (inactive)
9,Clc1cccc(N2CCNCC2)c1,101% (inactive)
10,O=C(O)Cc1ccc(O)c(O)c1,107% (inactive)
11,CC(=O)OC(C)C[N+](C)(C)C (stereo not drawn),85.5% (inactive)
12,CC1OC1P(=O)(O)O (stereo not drawn),102% (inactive)
13,c1ccc(CCCN2CCN(CCOC(c3ccccc3)c3ccccc3)CC2)cc1,101% (inactive)
14,COc1cccc(C(=O)NCCN2CCN(c3ccc(Cl)cc3)CC2)c1,66.6% (inactive)
15,CCCCCCCC/C=C\CCCCCCCC(=O)NCCO,102% (inactive)
16,O=C1CC2(CCCC2)CC(=O)N1CCCCN1CCN(c2ncccn2)CC1,114% (inactive)
17,Oc1cc2c(cc1O)C(c1ccccc1)CNCC2 (stereo not drawn),85.1% (inactive)
18,CN[C@@H]1C[C@@H](c2ccc(Cl)c(Cl)c2)c2ccccc21,0% (inactive)
19,C=CCN1CC[C@]23c4c5ccc(O)c4O[C@H]2/C(=N/NC(=O)c2ccccc2)CC[C@@]3(O)[C@H]1C5,120% (inactive)
20,Nc1ncn([C@@H]2O[C@H](CO)[C@@H](O)[C@H]2O)c(=O)n1,65.2% (inactive)
21,COc1ccccc1N1CCN(CCN(C(=O)c2ccc(I)cc2)c2ccccn2)CC1,105% (inactive)
22,C[N+]1(C)C2CC(OC(=O)[C@H](CO)c3ccccc3)CC1C1OC12 (stereo partly drawn),105% (inactive) and 146% (inactive)
23,CNCCNS(=O)(=O)c1cccc2cnccc12,140% (inactive)
24,NC(=O)CN1CCCC1=O,99.2% (inactive)
25,CC(=O)O[C@H]1C(=O)[C@@]2(C)C([C@H](OC(=O)c3ccccc3)[C@]3(O)C[C@H](OC(=O)[C@H](O)[C@@H](NC(=O)c4ccccc4)c4ccccc4)C(C)=C1C3(C)C)[C@]1(OC(C)=O)CO[C@@H]1C[C@@H]2O (stereo partly drawn),82.3% (inactive)

row,SMILES,vessel count % control
1,C[N+]1(C)C2CCC1CC(OC(=O)c1c[nH]c3ccccc13)C2 (stereo not drawn),99.8% (inactive)
2,CCCn1c(=O)c2c(ncn2C)n(CCC)c1=O,98.7% (inactive)
3,Cc1cn[nH]c1,87.3% (inactive)
4,O=[N+]([O-])c1ccc2nc(N3CCNCC3)ccc2c1,118% (inactive)
5,CN(C)CCCCSC(=N)N,105% (inactive)
6,C[C@]12C[C@H](O)[C@H]3[C@@H](CCC4=CC(=O)CC[C@@]43C)[C@@H]1CC[C@@H]2C(=O)CO,103% (inactive)
7,CCOC(=O)c1ncn2c1CN(C)C(=O)c1cc(F)ccc1-2,98.9% (inactive)
8,CC(C)NCC(O)COc1cccc2ccccc12 (stereo not drawn),117% (inactive)
9,O=C(O)[C@@H]1CCN1,84.3% (inactive)
10,CC(COc1ccc(/C=C/c2ccccc2)cc1)[N+](C)(C)C (stereo not drawn),106% (inactive)
11,C[N+]1(C)CCc2cc3c(cc2[C@H]1[C@@H]1OC(=O)c2c1ccc1c2OCO1)OCO3,85.4% (inactive)
12,CN(C)C(=O)C(CCN1CCC(O)(c2ccc(Cl)cc2)CC1)(c1ccccc1)c1ccccc1,126% (inactive)
13,CC[C@@H](CO)NC(=O)[C@@H]1C=C2c3cccc4c3c(cn4C)C[C@H]2N(C)C1,70.9% (inactive)
14,CN1CCN(C(=O)OC2c3nccnc3C(=O)N2c2ccc(Cl)cn2)CC1 (stereo not drawn),105% (inactive)
15,CC1CNCCN1S(=O)(=O)c1cccc2cnccc12 (stereo not drawn),97.5% (inactive) and 98.4% (inactive)
16,CN1C2CCC1CC(OC(c1ccccc1)c1ccc(Cl)cc1)C2 (stereo not drawn),98.7% (inactive)
17,COc1ccc2c(c1OC)C(=O)O[C@@H]2[C@H]1c2c(cc3c(c2OC)OCO3)CCN1C,127% (inactive)
18,Nc1ncnc2c1ncn2C1CCCC1,81.5% (inactive)
19,C1COC(NC(C2CC2)C2CC2)=N1,100% (inactive)
20,C#CCN(C)Cc1ccccc1,91.4% (inactive)
21,C#CCN(C)[C@@H](C)Cc1ccccc1,74.7% (inactive)
22,Cc1cccc(C(=O)NCN2CCN(c3ccccc3C#N)CC2)c1,110% (inactive)
23,CN1CCN(C2=Nc3ccccc3Oc3ccc(Cl)cc32)CC1,123% (inactive)
